Entries after “also recorded” stand apart in the source; their conditions may differ. Where a name gives a salt, the structure may show the parent alone.
How the values were obtained:
AML12 hepatocytes = assay: Intracellular NAD+ levels in AML12 hepatocytes (dose-response and time course); format: cell-based
Description: Starting at levels at a concentration of 10 μM, NRH achieved similar increases in intracellular NAD+ levels to those reached with NR at 50-fold higher concentrations. NRH achieved maximal effects on NAD+ synthesis around the millimolar range, managing to increase intracellular NAD+ levels by more than 10-fold.
NRH actions were also extremely fast, as significant increases in NAD+ levels were observed within 5 minutes after NRH treatment.
Even at such relatively low dose, NRH achieved similar increases in intracellular NAD+ levels to those reached with NR at 50-fold higher concentrations. NRH achieved maximal effects on NAD+ synthesis around the millimolar range, managing to increase intracellular NAD+ levels by more than 10-fold.
NRH actions were also extremely fast (FIG. 3), as significant increases in NAD+ levels were observed within 5 minutes after NRH treatment.

C2C12 myotubes = assay: NAD+ levels in C2C12 myotubes after NRH treatment; format: cell-based
Description: (§1) The ability of NRH to potently increase NAD+ was tested as well in other cell type models.

INS1-cells = assay: NAD+ levels in INS1-cells after NRH treatment; format: cell-based
Description: as §1

3T3 fibroblasts = assay: NAD+ levels in 3T3 fibroblasts after NRH treatment; format: cell-based
Description: as §1

NAD+ synthesis = assay: Intracellular NAD+ related metabolites after treatment (UHPLC-MS); format: cell-based; conditions: for intracellular detection of NRH and NMNH: 5 minutes after treatment
From the text: (§2) Levels of NRH and other NAD-related metabolites in biological samples were obtained by using a cold liquid-liquid extraction using a mixture of methanol:water:chloroform in 5:3:5 (v/v), from which the polar phase was recovered for hydrophilic interaction ultra-high performance liquid chromatography mass spectrometry (UHPLC-MS) analysis. The UHPLC consisted of a binary pump, a cooled autosampler, and a column oven (DIONEX Ultimate 3000 UHPLC+ Focused, Thermo Scientific), connected to a triple quadrupole spectrometer (TSQ Vantage, Thermo Scientific) equipped with a heated electrospray ionisation (H-ESI) source. Of each sample, 2 μL were injected into the analytical column (2.1 mm×150 mm, 5 μm pore size, 200 Å HILICON iHILIC®-Fusion(P)), guarded by a pre-column (2.1 mm×20 mm, 200 Å HILICON iHILIC®-Fusion(P) Guard Kit) operating at 35° C. The mobile phase (10 mM ammonium acetate at pH 9, A, and acetonitrile, B) was pumped at 0.25 mL/min flow rate over a linear gradient of decreasing organic solvent (0.5-16 min, 90-25% B), followed by re-equilibration for a total run time of 30 min. The MS operated in positive mode at 3500 V with multiple reaction monitoring (MRM). The software Xcalibur v4.1.31.9 (Thermo Scientific) was used for instrument control, data acquisition and processing. Retention time and mass detection was confirmed by authentic standards.
A path in which NRH would be converted to NMNH, then to NADH and this would be finally oxidized to NAD+.

[1] = test system: equilibrative nucleoside transporters (ENTs); assay: NRH as extracellular NAD+ precursor under blockage of ENT-mediated transport (NBTI); format: cell-based; conditions: in the presence of NBTI
From the text: In order to understand the exact path by which NRH synthesizes NAD+, we initially evaluated whether NRH, could be transported into the cell by equilibrative nucleoside transporters (ENTs).

NAMPT = molecular target: T1, NAMPT (Mus musculus, UniProt Q99KQ4); assay: NRH action in presence of NAMPT inhibitor FK866; format: cell-based; conditions: with FK866, a NAMPT inhibitor
T1 construct: endogenous in cells
From the text: (§3) The action of NRH was also NAMPT-independent, based on experiments using FK866, a NAMPT inhibitor. If NRH led to NAD+ synthesis via the formation of NMNH, this hypothetical path would require the phosphorylation of NRH into NMNH. Given the essential and rate-limiting role of NRK1 in NR phosphorylation, we wondered whether the ability of NRH to boost NAD+ levels was NRK1 dependent. To answer this question, we evaluated NRH action in primary hepatocytes from either control or NRK1 knockout (NRK1KO) mice. […] Further, they rule out the possibility that NRH-induced NAD+ […] is driven by NRH oxidation into NR.

NRK1 = assay: NAD+ levels in primary hepatocytes from control or NRK1 knockout mice; format: cell-based; conditions: 1 hour of treatment
From the text: as §3

adenosine kinase (AK) = molecular target: T2, adenosine kinase (AK) (Mus musculus, UniProt P55264); assay: NRH-induced NAD+ synthesis under adenosine kinase inhibition; format: cell-based; design: effect of AK inhibitor on the action of NRH (NAD+ synthesis): dose or concentration left out as unconfirmed; conditions: for effect of AK inhibitor on the action of NRH (NAD+ synthesis): AML12 cells, inhibitor 1 hour prior to NRH (5-IT), NAD+ 1 hour later
T2 construct: endogenous in cells; host or cells: AML12 cells
Description: FIG. 4. […] AML12 cells were treated with an adenosine kinase inhibitor (5-IT; […]) for 1 hour prior to NRH treatment at the doses indicated. Then, 1 hour later, acidic extracts were obtained to measure NAD^+ levels. All values in the figure are expressed as mean+/−SEM of 3 independent experiments. * indicates statistical difference at p<0.05 vs. the respective vehicle treated group.

[2] = Stability in isolated mouse plasma; format: in vitro ADME; conditions: for generation of NAM in plasma / level of spiked compound in plasma: isolated mouse plasma, 2 h of incubation
From the text: as §2
(§4) NR degradation to NAM has been proposed as a limitation for its pharmacological efficacy. To evaluate whether NRH was also susceptible to degradation to NAM, we spiked NRH or NR in isolated mouse plasma. […] We also tested the stability of NRH in other matrixes. […] Finally, we also certified NRH stability in water (pH=7, at room temperature) for 48 h.

[3] = Stability in FBS supplemented media; format: in vitro ADME
Description: as §4

Stability in water = format: physicochemical; conditions: pH=7, room temperature
Description: as §4

[4] = Intraperitoneal injection in mice: tissue NAD+ and circulating metabolites; format: in vivo; conditions: for NAM levels in circulation / NAD+ levels in kidney / NAD+ levels in liver / NAD+ levels in muscle: IP 500 mg/kg; for NAD+ levels in kidney / NAD+ levels in liver / NAD+ levels in muscle: after 1 h
From the text: as §2
The above results prompted us to test whether NRH could act as an effective NAD+ precursor in vivo. For this, we first intraperitoneally (IP) injected mice with either NR or NRH (500 mg/kg). […] Importantly, NRH was detectable in circulation after IP injection.

[5] = Oral gavage in mice: hepatic NAD+ and plasma metabolites; format: in vivo; conditions: for administered compound in plasma: 1 h after oral administration
Description: 8 week-old C57BI/6NTac mice were orally gavaged with either saline (as vehicle), NR (500 mg/kg) or NRH (500 mg/kg). After 1 hour, liver, skeletal muscle and kidney NAD levels were evaluated. All results are expressed as mean+/−SEM of n=5 mice per group. * indicates statistical difference at p<0.05 vs. vs. saline-treated mice. # indicates statistical difference at p<0.05 vs. NR treated mice.
as §2
Oral administration of NRH led to very similar results to those observed after IP administration. […] NRH was detectable in plasma 1 h after oral administration. In contrast, NR levels were undetectable at 1 h after NR administration.

[6] = Oral gavage in mice: NRH levels in tissues; format: in vivo; conditions: 2 hours after gavage (250 mg/kg)
Description: 8 week-old C57BI/6NTac mice were orally gavaged with either saline (as vehicle), and NRH (250 mg/kg). After 2 hours, liver, skeletal muscle and kidney NRH levels were evaluated. All results are expressed as mean+/−SEM of n=4 mice per group, as areas under the signal by LC-MS analysis, corrected by total protein amount of tissue.
as §2

NMNAT = assay: NRH-induced NAD+ synthesis under NMNAT inhibition (gallotannin); format: cell-based
From the text: As a follow-up step, NMNAT enzymes could catalyze the transition from NMNH to NADH. […] Yet, part of the NRH action remained after gallotannin treatment when NRH was used at maximal doses.

T2 sequence (P55264 whole entry): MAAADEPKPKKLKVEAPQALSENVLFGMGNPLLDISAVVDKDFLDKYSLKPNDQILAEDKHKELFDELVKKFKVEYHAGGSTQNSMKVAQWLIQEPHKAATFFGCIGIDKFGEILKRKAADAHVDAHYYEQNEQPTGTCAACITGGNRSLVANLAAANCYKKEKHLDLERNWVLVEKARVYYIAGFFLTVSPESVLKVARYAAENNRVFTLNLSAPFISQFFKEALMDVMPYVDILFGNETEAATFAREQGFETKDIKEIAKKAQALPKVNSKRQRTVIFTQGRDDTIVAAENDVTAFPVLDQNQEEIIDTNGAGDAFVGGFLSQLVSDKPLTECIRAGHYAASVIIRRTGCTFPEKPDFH
T1 sequence (Q99KQ4 whole entry): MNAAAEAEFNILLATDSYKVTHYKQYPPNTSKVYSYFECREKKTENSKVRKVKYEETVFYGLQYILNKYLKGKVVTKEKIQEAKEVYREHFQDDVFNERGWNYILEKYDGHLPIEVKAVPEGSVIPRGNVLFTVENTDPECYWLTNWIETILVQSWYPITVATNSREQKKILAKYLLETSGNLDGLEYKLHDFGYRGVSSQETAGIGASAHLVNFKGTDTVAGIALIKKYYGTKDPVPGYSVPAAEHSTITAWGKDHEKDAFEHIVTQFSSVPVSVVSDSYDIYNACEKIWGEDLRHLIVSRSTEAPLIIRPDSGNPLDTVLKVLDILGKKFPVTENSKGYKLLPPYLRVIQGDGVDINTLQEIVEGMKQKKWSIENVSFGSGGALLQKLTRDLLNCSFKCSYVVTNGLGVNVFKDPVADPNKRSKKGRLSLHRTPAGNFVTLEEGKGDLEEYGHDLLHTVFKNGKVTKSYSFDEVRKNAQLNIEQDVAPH

SMILES: NC(=O)C1=CN([C@@H]2O[C@H](CO)[C@@H](O)[C@H]2O)C=CC1 [NRH, reduced nicotinamide riboside]
- ability to increase intracellular NAD+ compared with NR (AML12 hepatocytes; AML12 hepatocytes): better than NR; also recorded: superior to that of NR
- time to significant increase in NAD+ levels after treatment (AML12 hepatocytes; AML12 hepatocytes (FIG. 3)): ≤ 5 min
- increase of intracellular NAD+ levels (maximal effect) (AML12 hepatocytes; AML12 hepatocytes, around the millimolar range): more than 10 fold
- concentration at which NAD+ levels were significantly increased (AML12 hepatocytes; AML12 hepatocytes, dose-response (FIG. 2)): 10 µM
- fold higher NR concentration needed for similar increase in intracellular NAD+ (AML12 hepatocytes; NRH at 10 μM versus NR): 50 fold
- NAD+ levels (C2C12 myotubes): highly elevated
- NAD+ levels (INS1-cells): highly elevated
- NAD+ levels (3T3 fibroblasts): highly elevated
- intracellular detection of NRH and NMNH (NAD+ synthesis): could be detected
- intracellular NR and NMN (NAD+ synthesis; after treatment, compared with NR): greater than that triggered by NR itself
- capacity as extracellular NAD+ precursor under ENT blockage [1]: largely lost its capacity
- dependence of action on NAMPT (NAMPT): NAMPT-independent
- NAD+ levels in NRK1KO derived primary hepatocytes (NRK1): not affected by NRK1 deficiency
- generation of NMNH, NADH and NAD+ from NRH upon inhibition of AK (adenosine kinase (AK); metabolomic analyses): fully blunted
- NR production in plasma ([2]; incubation in isolated plasma): did not lead to NR production
- generation of NAM in plasma [2]: not generated; also recorded: did not significantly alter NAM levels
- level of spiked compound in plasma [2]: remained stable
- degradation to NAM in FBS supplemented media [3]: did not degrade to NAM
- time for which stability in water was certified (Stability in water): 48 h
- NAM levels in circulation [4]: only a very mild increase
- NAD+ levels in kidney [4]: increased
- NAD+ levels in liver [4]: increased
- NAD+ levels in muscle [4]: increased
- NRH in circulation ([4]; after IP injection): detectable
- NR in circulation ([4]; after IP injection, compared with NR injection): much higher levels than those detected after NR injection itself
- administered compound in plasma [5]: detectable
- NRH concentration in plasma ([5]; after oral gavage): 11.16 ± 1.74 µM
- effect on hepatic NAD+ levels compared with NR ([5]; oral administration): more potent effect
- NRH in kidney [6]: found intact, in high levels
- NRH in liver [6]: found intact, in high levels
- NRH in muscle [6]: found intact, in high levels

SMILES: Nc1ncnc2nc(-c3ccc(N4CCOCC4)nc3)cc(-c3cccc(Br)c3)c12 [ABT-702]
- effect of AK inhibitor on the action of NRH (NAD+ synthesis) (adenosine kinase (AK)): confirmed

SMILES: NC(=O)c1ccc[n+]([C@@H]2O[C@H](CO)[C@@H](O)[C@H]2O)c1 [NR, 1-b-D-ribofuranosyl-3-pyridinecarboxamide salt, reference compound]
- intracellular detection of NRH and NMNH (NAD+ synthesis): not
- NAD+ levels in NRK1KO derived primary hepatocytes (NRK1): failed to increase NAD+ levels
- generation of NAM in plasma [2]: increase in NAM
- level of spiked compound in plasma [2]: decayed
- NAM levels in circulation [4]: highly increased
- NAD+ levels in kidney [4]: increased
- NAD+ levels in liver [4]: increased
- NAD+ levels in muscle [4]: increased
- administered compound in plasma [5]: undetectable
- circulating NAM ([5]; oral administration): large increases

SMILES: Nc1ncnc2c1c(I)cn2[C@@H]1O[C@H](CO)[C@@H](O)[C@H]1O [5-IT, 5-iodotubercidin]
- effect of AK inhibitor on the action of NRH (NAD+ synthesis) (adenosine kinase (AK)): fully ablated
- formation of NR and NMN after NRH treatment (adenosine kinase (AK); with AK inhibitor): prevented

SMILES: O=C(OC[C@H]1O[C@@H](OC(=O)c2cc(O)c(O)c(OC(=O)c3cc(O)c(O)c(O)c3)c2)[C@H](OC(=O)c2cc(O)c(O)c(OC(=O)c3cc(O)c(O)c(O)c3)c2)[C@@H](OC(=O)c2cc(O)c(O)c(OC(=O)c3cc(O)c(O)c(O)c3)c2)[C@@H]1OC(=O)c1cc(O)c(O)c(OC(=O)c2cc(O)c(O)c(O)c2)c1)c1cc(O)c(O)c(OC(=O)c2cc(O)c(O)c(O)c2)c1 [gallotannin]
- effect of NMNAT inhibitor on NAD+ synthesis after NRH treatment (NMNAT; NRH at maximal doses (0.5 mM)): largely compromised
- effect of NMNAT inhibitor on NRH action (NMNAT; NRH at submaximal doses): totally blocked

Source: patent US20220233565A1, “REDUCED NICOTINAMIDERIBOSIDES FOR TREATING/PREVENTING SKELETAL MUSCLE DISEASE” (SOCIETE DES PRODUITS NESTLE S.A., priority 2019, published 2022)
